Results: patent US6838249B2, “Neuroblastoma cell lines expressing the α2δ subunit of calcium channels and methods therefore” (priority 2001, dated 2005)
Where two headings read alike, the source gives them in different places.

Columns and labels:
IMR32 cells = experiment: Differentiation of IMR32 cells with BrdU, density of [^3H]GBP binding sites; assay type: cell-based, human; settings: 10 μM BrdU for 10 to 12 days
Protocol: IMR32 cells, SK-N-MC cells and NG 108 cells as well as cells treated in culture with 10 μM of BrdU for 10 to 12 days were used. Cells were harvested and homogenates were made in HEPES/KOH buffer, pH 7.4. The homogenates were centrifuged for 15 min at 1000×g, and the supernatants were centrifuged at 40000×g for 15 min to obtain cell membranes.

[1] = tested on: α2δ subunit of calcium channels; settings: 10 nM [^3H]GBP; for Ki: one-site binding model

Row | Compound | expression of [^3H]GBP binding sites (IMR32 cells) | inhibition of [^3H]GBP binding to IMR32 cell membranes ([1]; varying concentrations (FIG. 3)) | Ki ([1]; read-out: Ki (nM) BrdU, differentiated (BrdU) IMR32 cell membranes) [nM] | Ki ([1]; read-out: Ki (nM) Control, undifferentiated (Control) IMR32 cell membranes) [nM]
1 | O=c1[nH]c(=O)n([C@H]2C[C@H](O)[C@@H](CO)O2)cc1Br [BrdU, 5-Bromo-2′-deoxyuridine] | increased | – | – | –
2 | CSCC[C@H](N)C(=O)O [L-methionine] | – | dose-dependently inhibited | 30 | 39
